Converted amounts (≈) assume the structure as drawn. Like-named read-outs stand apart in the source and are kept apart here. Starred links: 1 amine or outer side, 2 acyl side, 3 side chain; linkers in the order of their positions; H or OH if unused. Non-standard residues stand in square brackets, D forms with d. Residues, ends and D or L forms follow the SMILES beside them. N(1S-Me-propyl)Gly = CC[C@H](C)NCC(=O)O; Dopa = N[C@@H](Cc1ccc(O)c(O)c1)C(=O)O; X1 = O=C(CN(CC(F)(F)F)[*:1])[*:2]; Nspe = C[C@H](NCC(=O)O)c1ccccc1; Nlys = NCCCCNCC(=O)O; Nme = COCCNCC(=O)O
Tests used:
E. coli [1] = format: cell-based, Escherichia coli (ATCC 35218)
Description: (§1) The polymers were initially tested to determine their antibacterial properties in the solution state. Antibacterial activities of the compounds were tested using the methods described above for both Gram-negative and Gram-positive bacterial strains.
(§2) The minimum inhibitory concentration (MIC) for each polymer was determined according to Clinical Laboratory Standards Institute (CLSI) broth microdilution protocols (M7-A6). The procedure explained previously was followed (Chongsiriwatana et al., supra); briefly, serial dilutions of the polymers were prepared in Mueller-Hinton broth (MHB) in 96-well microtiter plates and bacterial inoculum in MHB was added to each well (˜5.0×10^4 CFU/well). Optical density was monitored at 590 nm for 16 h at 35° C.

B. subtilis = format: cell-based, Bacillus subtilis (ATCC 6633); conditions: 16 h
Description: as §1, §2

S. epidermidis = format: cell-based, Staphylococcus epidermidis RP62A (ATCC 12228); conditions: 16 h
Description: as §1, §2

P. aeruginosa = format: cell-based, Pseudomonas aeruginosa (ATCC 700829); conditions: 16 h
Description: as §1, §2

E. coli [2] = assay: Antibacterial activity on surfaces: bacterial adhesion and membrane permeation (FITC) on modified TiO2 slides; format: cell-based, Escherichia coli; conditions: for E. coli attachment to modified TiO2: 2 h exposure, compared with bare TiO2; for Percent FITC-stained bacteria: compared among surfaces
Description: Bacterial experiments on modified TiO2 slides were performed by exposing the surfaces to an E. coli suspension for two hours and then centrifuging to remove unattached and weakly attached bacteria. The bacteria remaining on the surfaces were imaged in phase contrast for determination of cell numbers, and in fluorescence after staining with FITC to detect cells with compromised membranes. From these images, total number of adherent bacteria (from phase contrast) and percent of attached cells with compromised membranes (from FITC staining) were determined and are shown in Table 3.
E. coli were streaked from frozen stocks onto Mueller-Hinton agar and incubated overnight at 37° C. A few colonies were then used to inoculate 25 ml of sterile Mueller-Hinton broth (MHB) and grown overnight at 37° C. TiO2-coated glass slides were modified with the polymers using the previously described procedure. Two-well chambers were clamped to the slides and sealed by injecting silastic resin, which was allowed to cure overnight. Slides were sterilized by exposure to UV light for 10 minutes. The bacterial suspension was concentrated by centrifugation and resuspended in PBS at a concentration of 5×10^7 CFU/ml; 2 ml of the E. coli suspension was added to each slide chamber. Slide chambers were covered and placed in a humidified incubator at 37° C.; after 2 h, nonadherent bacteria were removed by inverted centrifugation for 2 min at 30 rcf in sealed bags filled with PBS (Jensen et al., 2004). […] Slides were rinsed with PBS and imaged by confocal microscopy equipped with an inverted microscope (Leica TCS SP2). Phase contrast and fluorescent (488-nm band-pass filter for excitation of FITC) images were taken at identical locations to determine bacterial cell count and percent stained with FITC. The microscopy images were quantified using thresholding in ImageJ, and averages with standard deviations for at least nine images from one slide are reported. While slides were prepared in duplicate or triplicate and consistency was qualitatively confirmed between experimental samples, the reported counts and images were obtained from a single slide for each condition.

[3] = test system: E. coli, B. subtilis, S. epidermidis and P. aeruginosa; assay: Antibacterial activity in solution (MIC), statements for all bacterial strains; format: cell-based; conditions: for Antibacterial activity in solution: tested concentrations
Description: as §1, §2

| SMILES | MIC E. coli (E. coli [1]; solution, MHB, 16 h at 35° C.) [µM] | MIC B. subtilis (B. subtilis) [µM] | MIC S. epidermidis (S. epidermidis) [µM] | MIC P. aeruginosa (P. aeruginosa) [µM] | MIC E. coli (E. coli [1]; 16 h) [µM] | E. coli attachment to modified TiO2 (E. coli [2]) | Total number of FITC-stained bacteria relative to PMP110 surfaces (E. coli [2]; adhered E. coli, 2 h) | Percent FITC-stained bacteria (E. coli [2]; adhered E. coli) | MIC relative to AMP alone (times greater) [3] | Antibacterial activity in solution [3] |
| --- | --- | --- | --- | --- | --- | --- | --- | --- | --- | --- |
| C[C@@H](c1ccccc1)N(CC(N)=O)C(=O)CN(C(=O)CN(CCCCN)C(=O)CN(C(=O)CN(C(=O)CN(CCCCN)C(=O)[C@@H]1CCCN1C(=O)CN(C(=O)CN(CCCCN)C(=O)CN(C(=O)CN(C(=O)CNCCCCN)[C@@H](C)c1ccccc1)[C@@H](C)c1ccccc1)[C@@H](C)c1ccccc1)[C@@H](C)c1ccccc1)[C@@H](C)c1ccccc1)[C@@H](C)c1ccccc1 [AMP, H-NLys-Nspe-Nspe-NLys-Nspe-Pro-[NLys-Nspe-Nspe]2—NH2] (H-[Nlys][Nspe][Nspe][Nlys][Nspe]P[Nlys][Nspe][Nspe][Nlys][Nspe][Nspe]-NH2) | 12.5 (≈ 21.9 µg/mL) | 1.6 (≈ 2.81 µg/mL) | 1.6 (≈ 2.81 µg/mL) | 25 (≈ 43.9 µg/mL) | – | – | – | – | – | – |
| COCCN(CC(=O)N(CCOC)CC(=O)N(CCOC)CC(=O)N(CCOC)CC(=O)N(CCOC)CC(=O)N(CCOC)CC(=O)N(CCOC)CC(=O)N(CCOC)CC(=O)N(CCOC)CC(=O)N(CCOC)CC(=O)N(CC(=O)N[C@@H](Cc1ccc(O)c(O)c1)C(=O)N[C@@H](CCCCN)C(=O)N[C@@H](Cc1ccc(O)c(O)c1)C(=O)N[C@@H](CCCCN)C(=O)N[C@@H](Cc1ccc(O)c(O)c1)C(N)=O)CC(F)(F)F)C(=O)CN(CCOC)C(=O)CN(CCOC)C(=O)CN(CCOC)C(=O)CN(CCOC)C(=O)CN(CCOC)C(=O)CN(CCOC)C(=O)CN(CCOC)C(=O)CN(CCOC)C(=O)CN(CCOC)C(=O)CN(CCOC)C(=O)CN(C(=O)CN(C(=O)CN(CCCCN)C(=O)CN(C(=O)CN(C(=O)CN(CCCCN)C(=O)[C@@H]1CCCN1C(=O)CN(C(=O)CN(CCCCN)C(=O)CN(C(=O)CN(C(=O)CNCCCCN)[C@@H](C)c1ccccc1)[C@@H](C)c1ccccc1)[C@@H](C)c1ccccc1)[C@@H](C)c1ccccc1)[C@@H](C)c1ccccc1)[C@@H](C)c1ccccc1)[C@@H](C)c1ccccc1 [PMP1-AMP] (H-[Nlys][Nspe][Nspe][Nlys][Nspe]P[Nlys][Nspe][Nspe][Nlys][Nspe][Nspe][Nme][Nme][Nme][Nme][Nme][Nme][Nme][Nme][Nme][Nme][Nme][Nme][Nme][Nme][Nme][Nme][Nme][Nme][Nme][Nme][X1][Dopa]K[Dopa]K[Dopa]-NH2) | – | 3.1 (≈ 15.5 µg/mL) | 3.1 (≈ 15.5 µg/mL) | 200 (≈ 998 µg/mL) | 50 (≈ 250 µg/mL) | comparable to bare TiO2 surfaces | more than ten times greater | highest percentage of bacterial cells with compromised membranes | 2-4 times | active against all bacterial strains |
| CC[C@H](C)N(CC(=O)N(CCCCN)CC(=O)N(CC(=O)N(CC(=O)N(CCCCN)CC(=O)N(CC(=O)N(CC(=O)N(CCCCN)CC(=O)N(CC(=O)N(CC(=O)N(CCOC)CC(=O)N(CCOC)CC(=O)N(CCOC)CC(=O)N(CCOC)CC(=O)N(CCOC)CC(=O)N(CCOC)CC(=O)N(CCOC)CC(=O)N(CCOC)CC(=O)N(CCOC)CC(=O)N(CCOC)CC(=O)N(CCOC)CC(=O)N(CCOC)CC(=O)N(CCOC)CC(=O)N(CCOC)CC(=O)N(CCOC)CC(=O)N(CCOC)CC(=O)N(CCOC)CC(=O)N(CCOC)CC(=O)N(CCOC)CC(=O)N(CCOC)CC(=O)N(CC(=O)N[C@@H](Cc1ccc(O)c(O)c1)C(=O)N[C@@H](CCCCN)C(=O)N[C@@H](Cc1ccc(O)c(O)c1)C(=O)N[C@@H](CCCCN)C(=O)N[C@@H](Cc1ccc(O)c(O)c1)C(N)=O)CC(F)(F)F)[C@@H](C)CC)[C@@H](C)CC)[C@@H](C)CC)[C@@H](C)CC)[C@@H](C)CC)[C@@H](C)CC)C(=O)CN(C(=O)CNCCCCN)[C@@H](C)CC [PMP1-C, reference compound] (H-[Nlys][N(1S-Me-propyl)Gly][N(1S-Me-propyl)Gly][Nlys][N(1S-Me-propyl)Gly][N(1S-Me-propyl)Gly][Nlys][N(1S-Me-propyl)Gly][N(1S-Me-propyl)Gly][Nlys][N(1S-Me-propyl)Gly][N(1S-Me-propyl)Gly][Nme][Nme][Nme][Nme][Nme][Nme][Nme][Nme][Nme][Nme][Nme][Nme][Nme][Nme][Nme][Nme][Nme][Nme][Nme][Nme][X1][Dopa]K[Dopa]K[Dopa]-NH2) | – | >100 | >100 | >100 | >100 | much higher than PMP1-AMP and TiO2 surfaces | – | low and comparable to the control TiO2 substrates | – | not active at the tested concentrations |
| CC[C@H](C)N(CC(N)=O)C(=O)CN(C(=O)CN(CCCCN)C(=O)CN(C(=O)CN(C(=O)CN(CCCCN)C(=O)CN(C(=O)CN(C(=O)CN(CCCCN)C(=O)CN(C(=O)CN(C(=O)CNCCCCN)[C@@H](C)CC)[C@@H](C)CC)[C@@H](C)CC)[C@@H](C)CC)[C@@H](C)CC)[C@@H](C)CC)[C@@H](C)CC [Peptoid C, H-[NLys-Nssb-Nssb]4-NH2, reference compound] (H-[Nlys][N(1S-Me-propyl)Gly][N(1S-Me-propyl)Gly][Nlys][N(1S-Me-propyl)Gly][N(1S-Me-propyl)Gly][Nlys][N(1S-Me-propyl)Gly][N(1S-Me-propyl)Gly][Nlys][N(1S-Me-propyl)Gly][N(1S-Me-propyl)Gly]-NH2) | – | >100 | >100 | >100 | >100 | – | – | – | – | not active at the tested concentrations |
